Several values for one entry are separate records, joined by “and”; a condition that tells them apart may be missing. Equal values may be shown once.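 Where inhibition never reached the appropriate level, the endpoint shown equals the highest concentration tested. Otherwise, values were interpolated linearly from a five-concentration, 48-hour dose response in 96-well plates. Here, GI50 denotes the concentration required for 50% inhibition of growth. The concentration for full growth arrest is given as TGI.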
What was measured:
Assay in all cases: growth of human tumour cells (NCI), 48 h
MDA-MB-435 = tested on: MDA-MB-435
RPMI-8226 leukemia = tested on: RPMI-8226 leukemia
NCI-H460 lung = tested on: NCI-H460 lung
U251 CNS = tested on: U251 CNS
PC-3 prostate = tested on: PC-3 prostate
KM12 colon = tested on: KM12 colon
SNB-75 CNS = tested on: SNB-75 CNS
HCT-116 colon = tested on: HCT-116 colon
SK-OV-3 ovarian = tested on: SK-OV-3 ovarian
SW-620 colon = tested on: SW-620 colon

Row | Structure (SMILES) | TGI (MDA-MB-435) | TGI (RPMI-8226 leukemia) | TGI (NCI-H460 lung) | TGI (U251 CNS) [µM] | TGI (PC-3 prostate) | TGI (KM12 colon) [µM] | TGI (SNB-75 CNS) | TGI (HCT-116 colon) [µM] | TGI (SK-OV-3 ovarian) [µM] | TGI (SW-620 colon) [µM] | GI50 (MDA-MB-435) [µM] | GI50 (RPMI-8226 leukemia) | GI50 (NCI-H460 lung) | GI50 (U251 CNS) | GI50 (PC-3 prostate) [µM] | GI50 (KM12 colon) | GI50 (SNB-75 CNS) [nM] | GI50 (HCT-116 colon) | GI50 (SK-OV-3 ovarian) | GI50 (SW-620 colon) [µM]
1 | Cc1ccc(NC(=S)C#N)c(C)c1 | > 100 µM | 76 µM | > 100 µM | > 100 | > 100 µM | > 100 | > 100 µM | > 100 | > 100 | > 100 | – | – | – | – | – | – | – | – | – | –
2 | Cc1ccc(-c2c3c(nn2-c2ccc(S(=O)(=O)NC(=O)NC4CCCCC4)cc2)-c2ccccc2C3)cc1 | 41.4 µM | 7.42 µM | 26.3 µM | 26.9 | 25.3 µM | 38.2 | 45.5 µM | 15.9 | 42.4 | 6.31 | 19 | 2440 nM | 8.75 µM | 12.3 µM | 11.1 | 13 µM | 20400 | 3.3 µM | 18.9 µM | 2.65
3 | O=C1c2ccn(CCCNC(CO)(CO)CO)c2C(=O)c2c1c(O)c1ccccc1c2O | > 65.4 µM | > 69.7 µM | 29.3 µM | 36.6 | 35.8 µM | 25.7 | > 100 µM | 13.9 | 96.6 | 18.6 | 34.1 | 22300 nM | 10.2 µM | 15.2 µM | 14.6 | 11.1 µM | > 75200 | 1.9 µM | 30.8 µM | 4.09
4 | C[C@@]1(C(=O)O)CCC[C@]2(C)C1CC[C@]13C[C@@](O)(CO)[C@](O)(CC[C@]12O)C3 (some centres undefined) | > 100 µM | > 100 µM | > 100 µM | > 100 | > 100 µM | > 100 | > 100 µM | > 100 | > 100 | > 100 | > 100 | > 100000 nM | > 100 µM | > 100 µM | > 100 | > 100 µM | > 100000 | > 100 µM | > 100 µM | > 100
5 | O=C(NCCCl)Nc1ccccc1 | > 100 µM | > 100 µM | > 100 µM | > 100 | > 100 µM | > 100 | > 100 µM | > 100 | > 100 | > 100 | – | – | – | – | – | – | – | – | – | –
6 | O=C1C(Cl)=C(Cl)C(=O)N1c1ccc(F)cc1 | 34.9 µM | 59.7 µM | > 100 µM | 53.2 | 29.8 µM | 50.2 | 20.8 µM | > 54.5 | > 69.2 | 34.1 | – | – | – | – | – | – | – | – | – | –
7 | COc1cc2c(NC3CCN(C(C)C)CC3)nc(C3CCCCC3)nc2cc1OCCCN1CCCC1 | 3.34 µM | 7.75 µM | 12.9 µM | 5.11 | 22.4 µM | 12.6 | 10.8 µM | 14.1 | 23.4 | 6.45 | 1.67 | 2420 nM | 3.45 µM | 1.97 µM | 7.09 | 3.07 µM | 2090 | 3.08 µM | 9.57 µM | 2.15
8 | Cc1cc(-c2nc3n(c2/C=N/N=C(N)N)CCS3)c(C)s1 | 32.5 µM | 30.7 µM | 35.7 µM | 32.1 | 27.7 µM | 21.2 | 48.8 µM | 28.7 | 36.9 | 35 | 18.5 | 14000 nM | 19.6 µM | 15.6 µM | 13.1 | 6.7 µM | 29900 | 15.4 µM | 19.8 µM | 18.5
9 | NC(Cc1cccnn1)C(=O)O (centres undefined) | > 100 µM | > 100 µM | > 100 µM | > 100 | > 100 µM | > 100 | > 100 µM | > 100 | > 100 | > 100 | – | – | – | – | – | – | – | – | – | –
10 | CN(C)c1cc2c(Nc3ccc4c(cnn4Cc4ccccc4)c3)ncnc2cn1 | > 25 µM | > 25 µM | > 25 µM | 24.4 | > 25 µM | > 20 | > 25 µM | > 25 | > 25 | > 25 | 10.5 | 10900 nM | 10.3 µM | 7.8 µM | 10 | 7.29 µM | > 22000 | 9.23 µM | 0.104 µM | 15.3
11 | CSc1nnc(-c2cc3c([nH]c4ccccc43)c(-c3cccc(O)c3)n2)n1-c1ccc(C)cc1 | 11.2 µM | > 100 µM | 14.6 µM | 28.7 | 23 µM | > 100 | 5.33 µM | > 100 | 14 | > 100 | 1.32 | 5310 nM | 3.31 µM | 4.84 µM | 3.58 | 3.86 µM | 1660 | 4.35 µM | 3.19 µM | 5.8
12 | CC(=O)O[C@@H]1C2=C(C)C3(CC3)[C@@](C)(O)C(=O)C2=C[C@@]1(C)CO | 1.72 µM | 3.14 µM | 1.08 µM | > 36.1 | 12.3 µM | 8.59 | 1.38 µM | > 100 | 8.01 | > 100 | 0.48 | 372 nM | 0.296 µM | 0.396 µM | 1.02 | 1.32 µM | 217 | 0.424 µM | 1.55 µM | 0.355
13 | CC(C)c1[nH]nc2c(NCc3ccc(-c4ccccn4)cc3)nc(SCCN)nc12 | 1.08 µM and 1.07 µM | 0.0847 µM and 0.0831 µM | 2.05 µM and 10 µM | 11.5 | 4.11 µM and 12.3 µM | 10.3 | 0.0331 µM and 0.0448 µM | 10.6 | 11.4 | – | 0.00422 | 15.1 nM and 16.7 nM | 0.0381 µM and 0.0356 µM | 0.028 µM and 0.0205 µM | 0.0257 | 0.0175 µM and 0.0126 µM | 5.87 | 0.0233 µM and 0.0196 µM | 0.0433 µM and 0.0276 µM | 0.012
14 | C=C1C(=O)O[C@@H]2CC(CO)=C([C@@H](C)CCCO)[C@@H](OC(=O)/C(C)=C\C)[C@H]12 | > 52.4 µM | 31 µM | 48.2 µM | 37.6 | 45.7 µM | 43.7 | > 100 µM | 26.5 | > 100 | 44.5 | – | – | – | – | – | – | – | – | – | –
